Laboratory results reported in the NIST ThermoML archive (doi:10.1021/je020215j).

Details: Crystal

O=[N+]([O-])c1cnc(O)nc1O [2,4-pyrimidinedione, 5-nitro-]
Details	vapor or sublimation pressure [kPa]
431.25 K	7.18e-06
433.14 K	8.41e-06
434.95 K	9.75e-06
434.98 K	1.014e-05
436.81 K	1.154e-05
438.63 K	1.3e-05
440.46 K	1.62e-05
442.17 K	2.096e-05
442.27 K	1.978e-05
445.93 K	2.924e-05
447.76 K	3.338e-05
453.11 K	6.104e-05

Nc1c[nH]c(=O)[nH]c1=O [2,4(1H,3H)-pyrimidinedione, 5-amino-]
Details	vapor or sublimation pressure [kPa]
433.11 K	1.941e-05
433.16 K	2.072e-05
436.7 K	2.56e-05
438.65 K	3.333e-05
440.48 K	3.89e-05
442.32 K	4.794e-05
444.14 K	5.231e-05
445.07 K	5.373e-05
445.96 K	6.018e-05
445.97 K	5.707e-05
447.76 K	6.664e-05
453.1 K	9.97e-05

Nc1cc(O)nc(O)n1 [6-aminouracil]
Details	vapor or sublimation pressure [kPa]
478.6 K	1.394e-05
478.61 K	1.375e-05
480.4 K	1.661e-05
482.16 K	1.922e-05
483.92 K	2.132e-05
485.6 K	2.413e-05
485.7 K	2.415e-05
487.5 K	2.821e-05
489.24 K	3.158e-05
491 K	3.515e-05
491.02 K	3.534e-05
492.65 K	4.176e-05

Cn1c(N)cc(=O)n(C)c1=O [6-amino-1,3-dimethyluracil]
Details	vapor or sublimation pressure [kPa]
401.59 K	9.9e-06
407.21 K	1.673e-05
409 K	1.845e-05
409.99 K	2.309e-05
410.8 K	2.478e-05
412.67 K	2.874e-05
412.82 K	3.133e-05
415.86 K	4.477e-05
416.43 K	3.968e-05
418.41 K	5.345e-05
420.22 K	6.082e-05
425.66 K	0.0001053

Cn1c(N)cc(=O)[nH]c1=O [6-amino-1-methyluracil]
Details	vapor or sublimation pressure [kPa]
456.84 K	2.824e-05
458.65 K	3.188e-05
459.55 K	3.807e-05
462.22 K	4.621e-05
463.15 K	5.015e-05
464.07 K	5.429e-05
466.07 K	6.44e-05
466.1 K	6.38e-05
467.87 K	7.507e-05
468.75 K	7.967e-05
469.67 K	8.597e-05
470.56 K	9.083e-05
